T1: ASBT (Homo sapiens, UniProt Q12908)
T1 construct: stably transfected with the full open reading frames of human NTCP, ASBT, SOAT, OATP1B1, OATP1B3, OATP2B1, and murine Asbt (mAsbt); expressed in transfected cells; host or cells: HEK293 (Flp-In), stably transfected, tetracycline-induced
T1 sequence (Q12908 1-348): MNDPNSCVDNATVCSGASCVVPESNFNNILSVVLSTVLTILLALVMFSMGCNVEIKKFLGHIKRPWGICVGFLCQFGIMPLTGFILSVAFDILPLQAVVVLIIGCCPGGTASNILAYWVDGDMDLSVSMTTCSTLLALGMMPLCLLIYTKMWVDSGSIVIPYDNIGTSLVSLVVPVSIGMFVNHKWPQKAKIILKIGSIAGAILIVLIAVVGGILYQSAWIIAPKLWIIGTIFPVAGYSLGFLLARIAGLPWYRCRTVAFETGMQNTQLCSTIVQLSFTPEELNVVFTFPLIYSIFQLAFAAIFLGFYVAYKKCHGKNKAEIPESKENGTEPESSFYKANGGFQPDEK

T2: SOAT (Homo sapiens, UniProt Q3KNW5)
T2 construct: stably transfected with the full open reading frames of human NTCP, ASBT, SOAT, OATP1B1, OATP1B3, OATP2B1, and murine Asbt (mAsbt); expressed in transfected cells; host or cells: HEK293 (Flp-In), stably transfected, tetracycline-induced
T2 sequence (Q3KNW5 1-377): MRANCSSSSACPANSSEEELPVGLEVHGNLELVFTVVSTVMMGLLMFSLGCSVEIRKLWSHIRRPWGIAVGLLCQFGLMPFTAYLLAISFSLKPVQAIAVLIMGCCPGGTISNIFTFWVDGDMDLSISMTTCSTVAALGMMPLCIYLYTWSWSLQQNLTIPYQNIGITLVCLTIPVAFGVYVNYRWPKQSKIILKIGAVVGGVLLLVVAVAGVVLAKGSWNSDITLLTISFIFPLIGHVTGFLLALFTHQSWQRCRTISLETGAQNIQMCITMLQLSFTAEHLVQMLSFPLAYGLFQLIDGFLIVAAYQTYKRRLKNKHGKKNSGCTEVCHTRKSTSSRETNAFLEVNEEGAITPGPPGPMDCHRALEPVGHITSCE


Key:
ASBT [1] = molecular target: T1, ASBT; test: [3H]TC transport and inhibition assay in ASBT-HEK293 cells; type: cell-based; settings: inhibitor at 100 μM, 1 μM [3H]TC, 10 min
Excerpt: (§1) Human embryonic kidney HEK293 cells, stably transfected with the full open reading frames of human NTCP, ASBT, SOAT, OATP1B1, OATP1B3, OATP2B1, and murine Asbt (mAsbt) were used as reported ([18], [20], [21], [22], [23]). The NTCP, ASBT, and mAsbt constructs were C-terminally tagged with the FLAG epitope, and the SOAT construct was C-terminally tagged with green fluorescent protein. Non-transfected Flp-In HEK293 cells (Thermo Fisher Scientific) served as the control. All cell lines were maintained at 37°C, 5% CO2 and 95% humidity in DMEM/F-12 medium (Thermo Fisher Scientific) supplemented with 10% fetal calf serum (Sigma-Aldrich), 4 mM L-glutamine (PAA) and penicillin/streptomycin (PAA). Expression of the respective carrier protein was induced by tetracycline treatment at 1 μg/ml (Carl Roth GmbH + Co. KG).
(§2) Cells were seeded onto poly-L-lysine-coated 96-well plates, induced with 1 μg/ml tetracycline, and grown to confluence over 72 h at 37°C. Then, cells were washed with tempered (37°C) phosphate-buffered saline (PBS, containing 137.0 mM NaCl, 2.7 mM KCl, 1.5 mM KH2PO4, and 7.3 mM Na2HPO4, at pH 7.4) and preincubated with 80 μl sodium transport buffer (STB, containing 142.9 mM NaCl, 4.7 mM KCl, 1.2 mM MgSO4, 1.2 mM KH2PO4, 1.8 mM CaCl2, and 20.0 mM HEPES, at pH 7.4) for 5 min at 37°C. For inhibition studies, the medium was replaced by 80 μl STB containing the respective inhibitor or solvent alone and cells were further incubated for 5 min at 37°C. Transport experiments were started by adding 20 μl of a 5-fold concentrated substrate solution (solved in STB). For transport experiments under sodium-free conditions the same buffer composition was used as for STB, but sodium chloride was substituted with equimolar concentrations of choline chloride as previously reported ([20], [24]). Transport experiments were stopped by washing twice with ice-cold PBS and the plates were kept cool on ice until adding the lysis buffer [1% sodium dodecyl sulfate (SDS) and 1 N NaOH]. Then, the cell-associated radioactivity of the respective tritium-labeled substrate or ligand was quantified by liquid scintillation counting using MicroScint-20 scintillation cocktail (Revvity) in a Packard Microplate Scintillation Counter TopCount NXT (Packard Instrument Company). For IC50 transport inhibition measurements, the mean uptake values measured in non-carrier-expressing HEK293 control cells were defined as 0% uptake control and were subtracted from all other values. Values from cells without inhibitor and solvent alone were set to 100%. Finally, all net transport data were expressed as uptake or binding as % of control. All transport or inhibition graphs were generated with GraphPad Prism 6 (GraphPad). Determination of half maximal inhibitory concentrations (IC50) was done by nonlinear regression analysis using the equation log (inhibitor) versus response—variable slope settings. All data points of the IC50 curves represent means ± SD of quadruplicate determinations. For Km measurements, BS uptake in the absence of sodium was regarded as carrier-independent unspecific uptake and was subtracted from the transport rates in the presence of sodium to obtain carrier-specific uptake rates (indicated as dashed lines). From the specific uptake rates, Michaelis Menten Km values were calculated by non-linear regression analysis.

SOAT = molecular target: T2, SOAT; test: [3H]DHEAS transport inhibition assay in SOAT-HEK293 cells; type: cell-based; settings: inhibitor at 100 μM, 1 μM [3H]DHEAS, 10 min
Excerpt: as §1, §2

ASBT [2] = molecular target: T1, ASBT; test: Transport inhibition and recovery assay (inhibitor washout) in ASBT-HEK293 cells; type: cell-based; settings: 100 μM inhibitor 5 min, 240 min recovery
Method: HEK293 cells stably expressing ASBT were seeded onto poly-L-lysine-coated 96-well plates, induced with 1 μg/ml tetracycline, and grown to confluence over 72 h at 37°C. Non-carrier-expressing HEK293 cells were used as control. Then, cells were washed with tempered (37°C) PBS and equilibrated for 5 min with STB. […] After inhibitor preincubation, cells were washed with tempered (37°C) PBS and further incubated in inhibitor-free DMEM (Thermo Fisher Scientific) for 30, 60, 120, or 240 min at 37°C. […] Finally, cell associated radioactivity was determined using the MicroBeta2 liquid scintillation counter (Revvity). For each inhibitor, the mean values from noncarrier-expressing HEK293 cells were set to 0% and transport measurements in the absence of inhibitor (solvent control) were set to 100%.
In the second setup, the inhibitor was thoroughly washed out after the preincubation phase and cells were placed on inhibitor-free medium for different time intervals of 0–240 min (indicated by “recovery time” in Fig. 7A).

ASBT [3] = molecular target: T1, ASBT; test: as above; type: cell-based; settings: 100 μM inhibitor, 5 min preincubation, 1 μM [3H]TC
mAsbt [4] = test: mAsbt inhibition and TC transport by Hallén et al. (2002); type: cell-based, mouse; settings: from Ki values of ref 42
mAsbt [5] = settings: ref 42 Hallén et al. (2002); read-out: Ki mAsbt inhibition; cited from earlier work
[6] = substrate: C[C@H](CCC(=O)NCCS(=O)(=O)O)[C@H]1CC[C@H]2[C@@H]3[C@H](O)C[C@@H]4C[C@H](O)CC[C@]4(C)[C@H]3C[C@H](O)[C@]12C; test: cells, lysate or membranes; settings: other: sodium-dependent specific uptake, initial linear phase, pH 7.4

Row | Molecule | Km ([6]; 37.0 °C) | Km [6] | other results
1 | Cc1c(C)c2c(c(C)c1O)CCC(C)(COc1ccc(CC3SC(=O)NC3=O)cc1)O2 (stereo not drawn) [troglitazone] |  |  | Inhibition of ASBT [3H]TC transport (ASBT [1]): significantly inhibited; Inhibition of SOAT [3H]DHEAS transport (SOAT): significantly inhibited; ASBT recovery after washout and 240 min in inhibitor-free medium (ASBT [2]): only partial recovery; ASBT inhibition with inhibitor present during uptake (inhibitor + [3H]TC) (ASBT [3]): nearly complete ASBT inhibition
2 | CCCC[C@]1(CC)CS(=O)(=O)c2ccccc2[C@@H](c2ccccc2)N1 [2164U90] |  |  | Difference in inhibitor potency mAsbt versus ASBT (mAsbt [4]): 150 fold; Ki (mAsbt [5]): 68 nM
3 | murine Asbt (mAsbt) (Mus musculus) (protein) MDNSSVCPPNATVCEGDSCVVPESNFNAILNTVMSTVLTILLAMVMFSMGCNVEVHKFLGHIKRPWGIFVGFLCQFGIMPLTGFILSVASGILPVQAVVVLIMGCCPGGTGSNILAYWIDGDMDLSVSMTTCSTLLALGMMPLCLFVYTKMWVDSGTIVIPYDSIGISLVALVIPVSFGMFVNHKWPQKAKIILKIGSITGVILIVLIAVIGGILYQSAWIIEPKLWIIGTIFPIAGYSLGFFLARLAGQPWYRCRTVALETGMQNTQLCSTIVQLSFSPEDLNLVFTFPLIYTVFQLVFAAVILGIYVTYRKCYGKNDAEFLEKTDNEMDSRPSFDETNKGFQPDEK | 272.3 µM |  | 
4 | ASBT (Homo sapiens) (protein) MNDPNSCVDNATVCSGASCVVPESNFNNILSVVLSTVLTILLALVMFSMGCNVEIKKFLGHIKRPWGICVGFLCQFGIMPLTGFILSVAFDILPLQAVVVLIIGCCPGGTASNILAYWVDGDMDLSVSMTTCSTLLALGMMPLCLLIYTKMWVDSGSIVIPYDNIGTSLVSLVVPVSIGMFVNHKWPQKAKIILKIGSIAGAILIVLIAVVGGILYQSAWIIAPKLWIIGTIFPVAGYSLGFLLARIAGLPWYRCRTVAFETGMQNTQLCSTIVQLSFTPEELNVVFTFPLIYSIFQLAFAAIFLGFYVAYKKCHGKNKAEIPESKENGTEPESSFYKANGGFQPDEK | 46.0 µM |  | 
5 | ASBT S294T/I295V (ASBT→mAsbt) (Homo sapiens; I295V/S294T) (protein) MNDPNSCVDNATVCSGASCVVPESNFNNILSVVLSTVLTILLALVMFSMGCNVEIKKFLGHIKRPWGICVGFLCQFGIMPLTGFILSVAFDILPLQAVVVLIIGCCPGGTASNILAYWVDGDMDLSVSMTTCSTLLALGMMPLCLLIYTKMWVDSGSIVIPYDNIGTSLVSLVVPVSIGMFVNHKWPQKAKIILKIGSIAGAILIVLIAVVGGILYQSAWIIAPKLWIIGTIFPVAGYSLGFLLARIAGLPWYRCRTVAFETGMQNTQLCSTIVQLSFTPEELNVVFTFPLIYTVFQLAFAAIFLGFYVAYKKCHGKNKAEIPESKENGTEPESSFYKANGGFQPDEK |  | 25.9 µM | 
6 | NTCP (Homo sapiens) (protein) MEAHNASAPFNFTLPPNFGKRPTDLALSVILVFMLFFIMLSLGCTMEFSKIKAHLWKPKGLAIALVAQYGIMPLTAFVLGKVFRLKNIEALAILVCGCSPGGNLSNVFSLAMKGDMNLSIVMTTCSTFCALGMMPLLLYIYSRGIYDGDLKDKVPYKGIVISLVLVLIPCTIGIVLKSKRPQYMRYVIKGGMIIILLCSVAVTVLSAINVGKSIMFAMTPLLIATSSLMPFIGFLLGYVLSALFCLNGRCRRTVSMETGCQNVQLCSTILNVAFPPEVIGPLFFFPLLYMIFQLGEGLLLIAIFWCYEKFKTPKDKTKMIYTAATTEETIPGALGNGTYKGEDCSPCTA | 90.9 µM |  | 
7 | NTCP M290S (NTCP→ASBT) (Homo sapiens; M290S) (protein) MEAHNASAPFNFTLPPNFGKRPTDLALSVILVFMLFFIMLSLGCTMEFSKIKAHLWKPKGLAIALVAQYGIMPLTAFVLGKVFRLKNIEALAILVCGCSPGGNLSNVFSLAMKGDMNLSIVMTTCSTFCALGMMPLLLYIYSRGIYDGDLKDKVPYKGIVISLVLVLIPCTIGIVLKSKRPQYMRYVIKGGMIIILLCSVAVTVLSAINVGKSIMFAMTPLLIATSSLMPFIGFLLGYVLSALFCLNGRCRRTVSMETGCQNVQLCSTILNVAFPPEVIGPLFFFPLLYSIFQLGEGLLLIAIFWCYEKFKTPKDKTKMIYTAATTEETIPGALGNGTYKGEDCSPCTA |  | 15.9 µM | 
8 | NTCP M290T/I291V (NTCP→mAsbt) (Homo sapiens; I291V/M290T) (protein) MEAHNASAPFNFTLPPNFGKRPTDLALSVILVFMLFFIMLSLGCTMEFSKIKAHLWKPKGLAIALVAQYGIMPLTAFVLGKVFRLKNIEALAILVCGCSPGGNLSNVFSLAMKGDMNLSIVMTTCSTFCALGMMPLLLYIYSRGIYDGDLKDKVPYKGIVISLVLVLIPCTIGIVLKSKRPQYMRYVIKGGMIIILLCSVAVTVLSAINVGKSIMFAMTPLLIATSSLMPFIGFLLGYVLSALFCLNGRCRRTVSMETGCQNVQLCSTILNVAFPPEVIGPLFFFPLLYTVFQLGEGLLLIAIFWCYEKFKTPKDKTKMIYTAATTEETIPGALGNGTYKGEDCSPCTA |  | 69.5 µM | 

From article PMC12596218 (Journal of Lipid Research, 2025)
